In ChEMBL document CHEMBL4376820, “Homodimeric Tobramycin Adjuvant Repurposes Novobiocin as an Effective Antibacterial Agent against Gram-Negative Bacteria” (J Med Chem, 2019):
Activity calls are given as the source filed them. The calls are words filed in the database; no cut-off is given here.

Legend:
Acinetobacter baumannii [1] = assay: Antibacterial activity against novobiocin-resistant Acinetobacter baumannii ATCC 17978 mutant generated from seven serial passages by checkerboard assay; assay type: functional
Acinetobacter baumannii [2] = assay: Antibacterial activity against colistin-resistant Acinetobacter baumannii ATCC 17978 mutant generated from seven serial passages by checkerboard assay; assay type: functional
Acinetobacter baumannii [3] = assay: Antibacterial activity against novobiocin and test compound-resistant Acinetobacter baumannii ATCC 17978 mutant generated from seven serial passages in presence of novobiocin by checkerboard assay; assay type: functional
Acinetobacter baumannii [4] = assay: Antibacterial activity against wild type Acinetobacter baumannii ATCC 17978 by checkerboard assay; assay type: functional
Pseudomonas aeruginosa [5] = assay: Potentiation of novobiocin-induced antibacterial activity against wild type Pseudomonas aeruginosa PAO1 incubated for 18 hrs by CLSI protocol based assay; assay type: functional, organism-based
Pseudomonas aeruginosa [6] = assay: Synergistic antibacterial activity against wild type Pseudomonas aeruginosa PAO1 assessed as potentiation of cefotaxime-induced antibacterial effect incubated for 18 hrs by checkerboard assay; assay type: functional, organism-based
Pseudomonas aeruginosa [7] = assay: Synergistic antibacterial activity against wild type Pseudomonas aeruginosa PAO1 assessed as potentiation of minocycline-induced antibacterial effect incubated for 18 hrs by checkerboard assay; assay type: functional, organism-based
Pseudomonas aeruginosa [8] = assay: Synergistic antibacterial activity against wild type Pseudomonas aeruginosa PAO1 assessed as potentiation of meropenem-induced antibacterial effect incubated for 18 hrs by checkerboard assay; assay type: functional, organism-based
HEK293 = assay: Cytotoxicity against human HEK293 cells at 50 uM incubated for 48 hrs by PrestoBlue dye based fluorescence assay; assay type: cell-based; conditions: hek293, 48 h
HepG2 = assay: Cytotoxicity against human HepG2 cells at 50 uM incubated for 48 hrs by PrestoBlue dye based fluorescence assay; assay type: cell-based; conditions: hepg2, 48 h
Erythrocyte = assay: Hemolytic activity against porcine erythrocytes assessed as hemoglobin release at 1024 ug/ml incubated for 1 hr by microplate reader analysis; assay type: ADME, cell-based, Sus scrofa; conditions: pig
[9] = Toxicity in Galleria mellonella larvae assessed as survivability at 200 mg/kg measured every 6 hrs for 72 hrs; assay type: organism-based; conditions: in vivo
Pseudomonas aeruginosa [10] = assay: Synergistic antibacterial activity against wild type Pseudomonas aeruginosa PAO1 assessed as potentiation of rifampicin-induced antibacterial effect incubated for 18 hrs by checkerboard assay; assay type: functional, organism-based
Pseudomonas aeruginosa [11] = assay: Synergistic antibacterial activity against wild type Pseudomonas aeruginosa PAO1 assessed as potentiation of doxycycline-induced antibacterial effect incubated for 18 hrs by checkerboard assay; assay type: functional, organism-based
Pseudomonas aeruginosa [12] = assay: Synergistic antibacterial activity against wild type Pseudomonas aeruginosa PAO1 assessed as potentiation of linezolid-induced antibacterial effect incubated for 18 hrs by checkerboard assay; assay type: functional, organism-based
Pseudomonas aeruginosa [13] = assay: Synergistic antibacterial activity against wild type Pseudomonas aeruginosa PAO1 assessed as potentiation of moxifloxacin-induced antibacterial effect incubated for 18 hrs by checkerboard assay; assay type: functional, organism-based
Pseudomonas aeruginosa [14] = assay: Synergistic antibacterial activity against wild type Pseudomonas aeruginosa PAO1 assessed as potentiation of ciprofloxacin-induced antibacterial effect incubated for 18 hrs by checkerboard assay; assay type: functional, organism-based
Pseudomonas aeruginosa [15] = assay: Synergistic antibacterial activity against wild type Pseudomonas aeruginosa PAO1 assessed as potentiation of levofloxacin-induced antibacterial effect incubated for 18 hrs by checkerboard assay; assay type: functional, organism-based
Pseudomonas aeruginosa [16] = assay: Synergistic antibacterial activity against wild type Pseudomonas aeruginosa PAO1 assessed as potentiation of aztreonam-induced antibacterial effect incubated for 18 hrs by checkerboard assay; assay type: functional, organism-based
Pseudomonas aeruginosa [17] = assay: Synergistic antibacterial activity against wild type Pseudomonas aeruginosa PAO1 assessed as potentiation of ceftazidime-induced antibacterial effect incubated for 18 hrs by checkerboard assay; assay type: functional, organism-based
Pseudomonas aeruginosa [18] = assay: Synergistic antibacterial activity against wild type Pseudomonas aeruginosa PAO1 assessed as potentiation of fosfomycin-induced antibacterial effect incubated for 18 hrs by checkerboard assay; assay type: functional, organism-based
Pseudomonas aeruginosa [19] = assay: Synergistic antibacterial activity against wild type Pseudomonas aeruginosa PAO1 assessed as potentiation of chloramphenicol-induced antibacterial effect incubated for 18 hrs by checkerboard assay; assay type: functional, organism-based
Pseudomonas aeruginosa [20] = assay: Synergistic antibacterial activity against wild type Pseudomonas aeruginosa PAO1 assessed as potentiation of clindamycin-induced antibacterial effect incubated for 18 hrs by checkerboard assay; assay type: functional, organism-based
Pseudomonas aeruginosa [21] = assay: Synergistic antibacterial activity against wild type Pseudomonas aeruginosa PAO1 assessed as potentiation of piperacillin-induced antibacterial effect incubated for 18 hrs by checkerboard assay; assay type: functional, organism-based
Pseudomonas aeruginosa [22] = assay: Synergistic antibacterial activity against wild type Pseudomonas aeruginosa PAO1 assessed as potentiation of novobiocin-induced antibacterial effect incubated for 18 hrs by checkerboard assay; assay type: functional, organism-based
Pseudomonas aeruginosa [23] = assay: Synergistic antibacterial activity against wild type Pseudomonas aeruginosa PAO1 assessed as potentiation of tobramycin-induced antibacterial effect at <= 7.1 uM incubated for 18 hrs by checkerboard assay; assay type: functional, organism-based
Pseudomonas aeruginosa [24] = assay: Synergistic antibacterial activity against wild type Pseudomonas aeruginosa PAO1 assessed as potentiation of vancomycin-induced antibacterial effect at <=7.1 uM incubated for 18 hrs by checkerboard assay; assay type: functional, organism-based
Pseudomonas aeruginosa [25] = assay: Synergistic antibacterial activity against wild type Pseudomonas aeruginosa PAO1 assessed as potentiation of colistin-induced antibacterial effect at <=7.1 uM incubated for 18 hrs by checkerboard assay; assay type: functional, organism-based
Pseudomonas aeruginosa [26] = assay: Antibacterial activity against wild type Pseudomonas aeruginosa PAO1 assessed as fractional inhibitory concentration index incubated for 18 hrs in presence of tobramycin by checkerboard assay; assay type: functional
Pseudomonas aeruginosa [27] = assay: Antibacterial activity against wild type Pseudomonas aeruginosa PAO1 assessed as fractional inhibitory concentration index incubated for 18 hrs in presence of colistin by checkerboard assay; assay type: functional
Pseudomonas aeruginosa [28] = assay: Synergistic antibacterial activity against wild type Pseudomonas aeruginosa PAO1 assessed as potentiation of rifampicin-induced antibacterial effect incubated for 18 hrs by checkerboard assay relative to rifampicin alone; assay type: functional
Pseudomonas aeruginosa [29] = assay: Synergistic antibacterial activity against wild type Pseudomonas aeruginosa PAO1 assessed as potentiation of minocycline-induced antibacterial effect incubated for 18 hrs by checkerboard assay relative to minocycline alone; assay type: functional
Pseudomonas aeruginosa [30] = assay: Synergistic antibacterial activity against wild type Pseudomonas aeruginosa PAO1 assessed as potentiation of cefotaxime-induced antibacterial effect incubated for 18 hrs by checkerboard assay relative to cefotaxime alone; assay type: functional
Pseudomonas aeruginosa [31] = assay: Synergistic antibacterial activity against wild type Pseudomonas aeruginosa PAO1 assessed as potentiation of doxycycline-induced antibacterial effect incubated for 18 hrs by checkerboard assay relative to doxycycline alone; assay type: functional
Pseudomonas aeruginosa [32] = assay: Synergistic antibacterial activity against wild type Pseudomonas aeruginosa PAO1 assessed as potentiation of linezolid-induced antibacterial effect incubated for 18 hrs by checkerboard assay relative to linezolid alone; assay type: functional
Pseudomonas aeruginosa [33] = assay: Synergistic antibacterial activity against wild type Pseudomonas aeruginosa PAO1 assessed as potentiation of meropenem-induced antibacterial effect incubated for 18 hrs by checkerboard assay relative to meropenem alone; assay type: functional
Pseudomonas aeruginosa [34] = assay: Synergistic antibacterial activity against wild type Pseudomonas aeruginosa PAO1 assessed as potentiation of moxifloxacin-induced antibacterial effect incubated for 18 hrs by checkerboard assay relative to moxifloxacin alone; assay type: functional
Pseudomonas aeruginosa [35] = assay: Synergistic antibacterial activity against wild type Pseudomonas aeruginosa PAO1 assessed as potentiation of ciprofloxacin-induced antibacterial effect incubated for 18 hrs by checkerboard assay relative to ciprofloxacin alone; assay type: functional
Pseudomonas aeruginosa [36] = assay: Synergistic antibacterial activity against wild type Pseudomonas aeruginosa PAO1 assessed as potentiation of levofloxacin-induced antibacterial effect incubated for 18 hrs by checkerboard assay relative to levofloxacin alone; assay type: functional
Pseudomonas aeruginosa [37] = assay: Synergistic antibacterial activity against wild type Pseudomonas aeruginosa PAO1 assessed as potentiation of aztreonam-induced antibacterial effect incubated for 18 hrs by checkerboard assay relative to aztreonam alone; assay type: functional
Pseudomonas aeruginosa [38] = assay: Synergistic antibacterial activity against wild type Pseudomonas aeruginosa PAO1 assessed as potentiation of ceftazidime-induced antibacterial effect incubated for 18 hrs by checkerboard assay relative to ceftazidime alone; assay type: functional
Pseudomonas aeruginosa [39] = assay: Synergistic antibacterial activity against wild type Pseudomonas aeruginosa PAO1 assessed as potentiation of fosfomycin-induced antibacterial effect incubated for 18 hrs by checkerboard assay relative to fosfomycin alone; assay type: functional
Pseudomonas aeruginosa [40] = assay: Synergistic antibacterial activity against wild type Pseudomonas aeruginosa PAO1 assessed as potentiation of chloramphenicol-induced antibacterial effect incubated for 18 hrs by checkerboard assay relative to chloramphenicol alone; assay type: functional
Pseudomonas aeruginosa [41] = assay: Synergistic antibacterial activity against wild type Pseudomonas aeruginosa PAO1 assessed as potentiation of clindamycin-induced antibacterial effect incubated for 18 hrs by checkerboard assay relative to clindamycin alone; assay type: functional
Pseudomonas aeruginosa [42] = assay: Synergistic antibacterial activity against wild type Pseudomonas aeruginosa PAO1 assessed as potentiation of novobiocin-induced antibacterial effect incubated for 18 hrs by checkerboard assay relative to novobiocin alone; assay type: functional
Pseudomonas aeruginosa [43] = assay: Synergistic antibacterial activity against wild type Pseudomonas aeruginosa PAO1 assessed as potentiation of piperacillin-induced antibacterial effect incubated for 18 hrs by checkerboard assay relative to piperacillin alone; assay type: functional

Compound: O=C(N[C@H](CO)[C@H](O)c1ccc([N+](=O)[O-])cc1)C(Cl)Cl [CHLORAMPHENICOL]
- MIC (Acinetobacter baumannii [1]): 32 µg/mL
- MIC (Acinetobacter baumannii [2]): 8 µg/mL
- MIC (Acinetobacter baumannii [3]): 64 µg/mL
- MIC (Acinetobacter baumannii [4]): 64 µg/mL

Compound: [N-]=[N+]=NCCCCO[C@@H]1[C@@H](O[C@H]2O[C@H](CO)[C@@H](O)[C@H](N)[C@H]2O)[C@H](N)C[C@H](N)[C@H]1O[C@H]1O[C@H](CN)[C@@H](O)C[C@H]1N
- Activity (Pseudomonas aeruginosa [5]): inactive

Compound: O=C(O)c1cn(C2CC2)c2cc(N3CCNCC3)c(F)cc2c1=O [CIPROFLOXACIN]
- MIC (Acinetobacter baumannii [4]): 1 µg/mL

Compound: NC[C@H]1O[C@H](O[C@H]2[C@H](OCCCCCCn3cc(CCCCO[C@@H]4[C@@H](O[C@H]5O[C@H](CO)[C@@H](O)[C@H](N)[C@H]5O)[C@H](N)C[C@H](N)[C@H]4O[C@H]4O[C@H](CN)[C@@H](O)C[C@H]4N)nn3)[C@@H](O[C@H]3O[C@H](CO)[C@@H](O)[C@H](N)[C@H]3O)[C@H](N)C[C@@H]2N)[C@H](N)C[C@@H]1O.O=C(O)C(F)(F)F.O=C(O)C(F)(F)F.O=C(O)C(F)(F)F.O=C(O)C(F)(F)F.O=C(O)C(F)(F)F.O=C(O)C(F)(F)F.O=C(O)C(F)(F)F.O=C(O)C(F)(F)F.O=C(O)C(F)(F)F.O=C(O)C(F)(F)F
- Activity (Pseudomonas aeruginosa [6]): Dose-dependent effect
- Activity (Pseudomonas aeruginosa [7]): Dose-dependent effect
- Activity (Pseudomonas aeruginosa [8]): Dose-dependent effect
- Activity (HEK293): Non-Toxic
- Activity (HepG2): Non-Toxic
- Activity (Erythrocyte): Non-Toxic
- Activity [9]: Non-Toxic
- Activity (Pseudomonas aeruginosa [10]): Dose-dependent effect
- Activity (Pseudomonas aeruginosa [11]): Dose-dependent effect
- Activity (Pseudomonas aeruginosa [12]): Dose-dependent effect
- Activity (Pseudomonas aeruginosa [13]): Dose-dependent effect
- Activity (Pseudomonas aeruginosa [14]): Dose-dependent effect
- Activity (Pseudomonas aeruginosa [15]): Dose-dependent effect
- Activity (Pseudomonas aeruginosa [16]): Dose-dependent effect
- Activity (Pseudomonas aeruginosa [17]): Dose-dependent effect
- Activity (Pseudomonas aeruginosa [18]): Dose-dependent effect
- Activity (Pseudomonas aeruginosa [19]): Dose-dependent effect
- Activity (Pseudomonas aeruginosa [20]): Dose-dependent effect
- Activity (Pseudomonas aeruginosa [21]): Dose-dependent effect
- Activity (Pseudomonas aeruginosa [22]): Dose-dependent effect
- Activity (Pseudomonas aeruginosa [23]): inactive
- Activity (Pseudomonas aeruginosa [24]): inactive
- Activity (Pseudomonas aeruginosa [25]): inactive
- fractional inhibitory concentration index (FICI) (Pseudomonas aeruginosa [26]): >4
- fractional inhibitory concentration index (FICI) (Pseudomonas aeruginosa [27]): >4
- fold change (FC) (Pseudomonas aeruginosa [28]): 4 - 128
- fold change (FC) (Pseudomonas aeruginosa [29]): 4 - 128
- fold change (FC) (Pseudomonas aeruginosa [30]): 4 - 128
- fold change (FC) (Pseudomonas aeruginosa [31]): 4 - 128
- fold change (FC) (Pseudomonas aeruginosa [32]): 4 - 128
- fold change (FC) (Pseudomonas aeruginosa [33]): 4 - 128
- fold change (FC) (Pseudomonas aeruginosa [34]): 4 - 128
- fold change (FC) (Pseudomonas aeruginosa [35]): 4 - 128
- fold change (FC) (Pseudomonas aeruginosa [36]): 4 - 128
- fold change (FC) (Pseudomonas aeruginosa [37]): 4 - 128
- fold change (FC) (Pseudomonas aeruginosa [38]): 4 - 128
- fold change (FC) (Pseudomonas aeruginosa [39]): 4 - 128
- fold change (FC) (Pseudomonas aeruginosa [40]): 4 - 128
- fold change (FC) (Pseudomonas aeruginosa [41]): 4 - 128
- fold change (FC) (Pseudomonas aeruginosa [42]): 4 - 128
- fold change (FC) (Pseudomonas aeruginosa [43]): 4 - 128
